The test system of series [1] is HIV-1 BaL. The settings on record: primary CD4+ T-cells, 35 days, drug at tissue culture equivalent clinical Cmin (FTC 160 × EC50).
For series [2], the system named is NRTI-, NNRTI- and PI-Resistant HIV-1 Mutants. Briefly: Antiviral activity against NRTI-, NNRTI- and PI-resistant HIV-1 mutants. The settings on record: for EC50: Human immunodeficiency virus 1, WT, Table S7. The format is cell-based.
Series [3] concerns HIV-1 integration in MT-2 cells (HIV-1 IIIb). The settings on record: relative to DMSO; for Late reverse transcription products (fold change): HIV-1 IIIb-infected MT-2, compound >20-fold EC50, 12 h; for Alu-LTR integration junctions (fold change) / Integration failure of 2-LTR circles (fold change): HIV-1 IIIb-infected MT-2, compound >20-fold EC50, 24 h.
Description: Quantification of 2-long terminal repeat (LTR) circles, late reverse transcription products, and integration junctions was adapted from a previously described method ([30]). […] Three hours after viral adsorption, the infected cells were washed twice with 20 ml of RPMI 1640 medium containing 10% FBS and antibiotics and seeded in 6-well plates in 2 ml of culture medium at 1 × 10^6 cells per well. […] These plates were incubated at 37°C for either 12 h (for late reverse transcription product quantification) or 24 h (for 2-LTR circle and Alu-LTR product quantification), after which time the cells were harvested for total DNA isolation. DNA was extracted from each well using the QIAamp DNA minikit (Qiagen, Valencia, CA) and collected as a 100-μl eluate. TaqMan real-time PCR-quantified 2-LTR junctions (2-LTR circles), late reverse transcription products, and integration junctions (Alu-LTR) were normalized to the level of host globin gene in each sample. Quantification by PCR was performed on the ViiA 7 real-time PCR system (Life Technologies, Grand Island, NY).
Series [4] concerns inhibitor-selected HIV-1 IIIb passages. The series can be described thus: Phenotypic profile of selected HIV-1 passages. The format is cell-based. Conditions: for EC50: Human immunodeficiency virus 1, IIIB.
The test system of series [5] is INSTI-resistant HIV-1 mutants (HXB2). The series can be described thus: microbe, parasite or virus in culture. Format: cell-based.
For series [6], the system named is HIV-1 IIIb. Briefly: Antiviral assay in MT-2 cells. The settings on record: Human immunodeficiency virus 1, IIIB, MT2; Table S9 footnote b; read-out: EC50 previously determined (start of resistance selection at twice the EC50). The format is cell-based. Here is the method:
For the antiviral assay utilizing MT-2 and MT-4 cells, 50 μl of a 2× test concentration of 5-fold serially diluted compound in culture medium with 10% FBS was added to each well of a 96-well plate (9 concentrations) in triplicate. MT-2 and MT-4 cells were infected with HIV-1 IIIb at a multiplicity of infection (MOI) of 0.01 for 3 h. Fifty microliters of infected cell suspension in culture medium with 10% FBS (∼1.5 × 10^4 cells) then was added to each well containing 50 μl of diluted compound. The plates were then incubated at 37°C for 5 days. After 5 days of incubation, 100 μl of CellTiter-Glo reagent (Promega Biosciences, Inc., Madison, WI) was added to each well containing MT-2 or MT-4 cells. Cell lysis was carried out by incubation at room temperature for 10 min and chemiluminescence was read. For compound cytotoxicity assessment, the protocol was identical except that uninfected cells were used and compounds were serially diluted 3-fold.

Series [7] has as its system HIV-1 IIIb. The series can be described thus: HIV breakthrough selection in MT-2 cells. Conditions: MT-2, HIV-1 IIIb; FTC 4× EC95, EVG 5× EC95, BIC and DTG 2.5× and 5× EC95; up to day 32.
The nature of series [8]: in vitro. The settings on record: human, CC50 in Primary Human Hepatocytes.
Series [9] has as its system HBV Production. The series can be described thus: microbe, parasite or virus in culture. Conditions: Hepatitis B virus.
The nature of series [10]: Cytotoxicity in AD38 cells. The settings on record: human.
Where [11] appears, read: 480 h, selected virus EVG P2 (day 20, 7.2 nM).
The mark [12] stands for this setting: selected virus BIC P3 (day 47, 6 nM).
The mark [13] stands for this setting: selected virus BIC P5 (day 71, 12 nM).
Setting [14] is: selected virus BIC P6 (day 86, 24 nM).
[15] abbreviates: selected virus BIC P8 (day 156, 96 nM).
Where [16] appears, read: selected virus BIC P9 (day 181, 192 nM).
The mark [17] stands for this setting: selected virus BIC P10 (day 234, 384 nM).
Where [18] appears, read: selected virus DTG P3Lo (day 59, 6.4 nM).
The mark [19] stands for this setting: selected virus DTG P4 (day 87, 9.6 nM).
[20] abbreviates: selected virus DTG P5 (day 97, 14.4 nM).
Where [21] appears, read: selected virus DTG P7 (day 139, 32.4 nM).
Setting [22] is: selected virus DTG P9 (day 174, 72.9 nM).
Setting [23] is: selected virus DTG P10 (day 202, 109.4 nM).
Setting [24] is: selected virus EVG P4 (day 41, 28.8 nM).
[25] abbreviates: selected virus EVG P6 (day 56, 115 nM).
[26] abbreviates: selected virus EVG P7 (day 67, 230 nM).
Where [27] appears, read: selected virus EVG P9 (day 94, 922 nM).
Setting [28] is: selected virus EVG P10 (day 119, 1843 nM).

SMILES strings stand for the structures. Like-named read-outs stand apart in the source and are kept apart here. Some results are limits rather than exact numbers.

For `COC(=O)N[C@H](C(=O)N[C@@H](Cc1ccccc1)[C@@H](O)CN(Cc1ccc(-c2ccccn2)cc1)NC(=O)[C@@H](NC(=O)OC)C(C)(C)C)C(C)(C)C` [ATV, atazanavir], in series [1], the “Frequency of Viral Breakthrough with RAMs” value (shortened to “Frequency”) is recorded as 0% and the “p24+ Wells” value is 0/24. Moreover, it took 1.6 ± 0.9 nM to reach a half-maximal effect in series [2] (EC50).
Take `CC(C)CN(C[C@@H](O)[C@H](Cc1ccccc1)NC(=O)O[C@H]1CO[C@H]2OCC[C@H]21)S(=O)(=O)c1ccc(N)cc1` [DRV, darunavir]: in series [3], the “Late reverse transcription products (fold change)” value came to 0.96 ± 0.11 fold change, the “Alu-LTR integration junctions (fold change)” value was found to be 0.72 ± 0.31 fold change and the “Integration failure of 2-LTR circles (fold change)” value turned out to be 0.57 ± 0.24 fold change. Also, the midpoint of the response in series [2], the EC50, lay at 3.5 ± 1.6 nM.
As to `O=C1Nc2ccc(Cl)cc2[C@@](C#CC2CC2)(C(F)(F)F)O1` [EFV, efavirenz], the “Late reverse transcription products (fold change)” value in [3] came to 0.21 ± 0.07 fold change. Further, the “Alu-LTR integration junctions (fold change)” value in series [3] came out at 0.10 ± 0.05 fold change. For the same compound, the “Integration failure of 2-LTR circles (fold change)” value in [3] is recorded as 0.05 ± 0.04 fold change. Also, the “Fold-Resistance Relative to HIV-1 IIIb” value in [4] (HIV-1-IIIb (reference)) amounted to 1 fold; in series [4] (selected virus BIC P3), 1 fold; in series [4] (selected virus BIC P5), 0.8 fold; in [4] (selected virus BIC P6), 0.8 fold; in series [4] (selected virus BIC P8) it was 1.1 fold; in [4] (selected virus BIC P9), 1.8 fold. Also, the “Fold-Resistance Relative to HIV-1 IIIb” value in series [4] (selected virus BIC P10) is 1.7 fold; in [4] (selected virus DTG P3Lo), 0.8 fold; in series [4] (selected virus DTG P4), 1.1 fold; in series [4] (selected virus DTG P5) it was 1.0 fold; in series [4] (selected virus DTG P7), 1.4 fold; in series [4] (selected virus DTG P9), 1.3 fold. For the same compound, the “Fold-Resistance Relative to HIV-1 IIIb” value in series [4] (selected virus DTG P10) is 1.8 fold; in series [4] (selected virus EVG P2) it was 1.8 fold; in [4] (selected virus EVG P4), 1.7 fold; in series [4] (selected virus EVG P6), 1.5 fold; in series [4] (selected virus EVG P7) it was 2.2 fold; in [4] (selected virus EVG P9) it was 2.0 fold. In [4] (selected virus EVG P10), the “Fold-Resistance Relative to HIV-1 IIIb” value is reported as 1.2 fold. Further, the EC50 (in general, the concentration that produces a half-maximal response) in series [4] (setting [11]) is 3 nM; in [4] (HIV-1-IIIb (unselected)), 1.6 nM; in series [4] (setting [12]), 1.6 nM; in [4] (setting [13]) it was 1.2 nM; in series [4] (setting [14]), 1.3 nM; in [4] (setting [15]) it was 1.7 nM. Besides, the concentration giving a half-maximal response (EC50) was determined as 2.8 nM in series [4] (setting [16]); 2.7 nM in series [4] (setting [17]); 1.2 nM in series [4] (setting [18]); 1.8 nM in series [4] (setting [19]); 1.7 nM in series [4] (setting [20]); 2.3 nM in series [4] (setting [21]). Further, the EC50 in series [4] (setting [22]) stood at 2.1 nM; in series [4] (setting [23]) it was 2.8 nM; in [4] (setting [24]) it was 2.8 nM; in [4] (setting [25]), 2.4 nM; in [4] (setting [26]), 3.6 nM; in [4] (setting [27]) it was 3.2 nM. For the same compound, the half-maximal effective concentration (EC50) in series [4] (setting [28]) worked out at 2 nM; in series [2], 1.2 ± 0.4 nM; in series [5] (Human immunodeficiency virus 1, HXB2, IN mutant E92Q), 1.5 ± 0.3 nM; in series [5] (Human immunodeficiency virus 1, HXB2, IN mutant E92Q/N155H) it was 1.5 ± 0.4 nM; in series [5] (Human immunodeficiency virus 1, HXB2, IN mutant E138K/Q148K), 1.9 ± 0.4 nM; in [5] (Human immunodeficiency virus 1, HXB2, IN mutant G140S/Q148R), 1.5 ± 0.3 nM. Besides, the EC50 was found to be 1.1 ± 0.4 nM in [5] (Human immunodeficiency virus 1, HXB2, IN mutant M50I (BIC/DTG selection)); 1 ± 0.3 nM in series [5] (Human immunodeficiency virus 1, HXB2, IN mutant M50I/R263K (BIC selection)); 3.2 ± 1.8 nM in series [5] (Human immunodeficiency virus 1, HXB2, IN mutant M50I/S119R/R263K (DTG selection)); 1.6 ± 0.05 nM in [5] (Human immunodeficiency virus 1, HXB2, IN mutant N155H); 2.2 ± 0.8 nM in [5] (Human immunodeficiency virus 1, HXB2, IN mutant N155H/Q148R); 1.7 ± 0.1 nM in series [5] (Human immunodeficiency virus 1, HXB2, IN mutant Q148R). Moreover, the EC50 in [5] (Human immunodeficiency virus 1, HXB2, IN mutant R263K (BIC/DTG selection), Table 7) was 1 ± 0.4 nM; in series [5] (Human immunodeficiency virus 1, HXB2, IN mutant R263K, Table 6) it was 1.8 ± 0.3 nM; in series [5] (Human immunodeficiency virus 1, HXB2, IN mutant S119R (DTG selection)), 2.1 ± 1.1 nM; in series [5] (Human immunodeficiency virus 1, HXB2, IN mutant S119R/R263K (DTG selection)) it was 2.1 ± 1 nM; in [5] (Human immunodeficiency virus 1, HXB2, IN mutant S153Y (DTG selection)), 2.2 ± 1.1 nM; in series [5] (Human immunodeficiency virus 1, HXB2, IN mutant S153Y/R263K (DTG selection)) it was 2 ± 0.7 nM. Moreover, the EC50 in series [5] (Human immunodeficiency virus 1, HXB2, IN mutant Y143R) stood at 1.7 ± 0.1 nM; in series [5] (Human immunodeficiency virus 1, HXB2, WT (HXB2), Table 6, read-out: EC50), 1.9 ± 0.3 nM; in series [5] (Human immunodeficiency virus 1, HXB2, WT (HXB2), Table 7, read-out: EC50) it was 1.2 ± 0.4 nM. The “Frequency” value in series [1] is reported as 17%. Moreover, the “p24+ Wells” value in series [1] is recorded as 2/12. In addition, the “EC50 Fold Change Relative to WT” value in series [2] (NNRTI resistant L100I K103N) is > 83 fold change.
Regarding `COc1cc2c(cc1Cc1cccc(Cl)c1F)c(=O)c(C(=O)O)cn2[C@H](CO)C(C)C` [EVG, elvitegravir], the EC50 in series [6] came out at 1.8 nM; in series [4] (setting [11]) it was 17.8 nM; in [4] (HIV-1-IIIb (unselected)), 2.1 nM; in series [4] (setting [12]), 5.1 nM; in series [4] (setting [13]), 8.3 nM; in series [4] (setting [14]), 7.8 nM. Besides, the EC50 worked out at 33.6 nM in series [4] (setting [15]); 55 nM in series [4] (setting [16]); 33 nM in series [4] (setting [17]); 1.7 nM in [4] (setting [18]); 5 nM in series [4] (setting [19]); 9.3 nM in series [4] (setting [20]). Besides, the EC50 in series [4] (setting [21]) was determined as 15.5 nM; in [4] (setting [22]), 25.1 nM; in [4] (setting [23]) it was 69.2 nM; in series [4] (setting [24]) it was 30.2 nM; in series [4] (setting [25]), 48.9 nM; in series [4] (setting [26]) it was 203 nM. Further, the figures for the EC50 in series [4] (setting [27]), in series [4] (setting [28]) and in [2] were 296 nM, 246 nM and 2.5 ± 1.5 nM, respectively. Further, the “Frequency” value in series [1] came to 54%. Further, the “p24+ Wells” value in series [1] is listed as 23/24. For the same compound, the “day postinfection of HIV-1 breakthrough” value in series [7] stood at 22 days.
Turning to `COc1ccc(C[C@H](N)C(=O)N[C@H]2[C@@H](O)[C@H](n3cnc4c(N(C)C)ncnc43)O[C@@H]2CO)cc1` [Puromycin], the figures for the CC50 in [8] (Donor 1) and in series [8] (Donor 2) were 1200 nM and 830 nM, respectively.
On to `Cc1cc(/C=C/C#N)cc(C)c1Nc1ccnc(Nc2ccc(C#N)cc2)n1` [RPV, rilpivirine], for which, in [1], the “Frequency” value is recorded as 25% and the “p24+ Wells” value is given as 6/24. Besides, the 50% effective concentration (EC50) in series [2] stood at 0.8 ± 0.4 nM. In series [2] (NNRTI resistant L100I K103N), the “EC50 Fold Change Relative to WT” value was 21.9 fold change.
Consider `C[C@H](Cn1cnc2c(N)ncnc21)OCP(=O)(O)O` [TFV, tenofovir], for which the EC50 stood at 360 nM in series [9] and 3720 nM in [2]. Further, the “EC50 Fold Change Relative to WT” value in series [2] (NRTI resistant 6TAMs) amounted to 7.1 fold change. Besides, the CC50 at 5 days in [10] was > 50000 nM.
